Earlier results in US20230270709A1, “ANTIVIRAL PHARMACEUTICAL COMPOSITION FOR TOPICAL ADMINISTRATION” (Christian-Albrechts-Universitat Zu Kiel, priority 2020, published 2023).
Where a name gives a salt, the structure may show the parent alone.

Columns and labels:
[1] = system: SARS-CoV-2; conditions: Hoffmann et al. 2020
[2] = target: transmembrane protease, serine 2 (TMPRSS2) (Homo sapiens, UniProt O15393); conditions: Zhou et al., Antiviral Research 116 (2015)
[3] = system: SARS-CoV; conditions: pathogenic animal model for SARS-CoV infection; Zhou et al. 2015

Chain of transmembrane protease, serine 2 (TMPRSS2) (O15393 whole entry): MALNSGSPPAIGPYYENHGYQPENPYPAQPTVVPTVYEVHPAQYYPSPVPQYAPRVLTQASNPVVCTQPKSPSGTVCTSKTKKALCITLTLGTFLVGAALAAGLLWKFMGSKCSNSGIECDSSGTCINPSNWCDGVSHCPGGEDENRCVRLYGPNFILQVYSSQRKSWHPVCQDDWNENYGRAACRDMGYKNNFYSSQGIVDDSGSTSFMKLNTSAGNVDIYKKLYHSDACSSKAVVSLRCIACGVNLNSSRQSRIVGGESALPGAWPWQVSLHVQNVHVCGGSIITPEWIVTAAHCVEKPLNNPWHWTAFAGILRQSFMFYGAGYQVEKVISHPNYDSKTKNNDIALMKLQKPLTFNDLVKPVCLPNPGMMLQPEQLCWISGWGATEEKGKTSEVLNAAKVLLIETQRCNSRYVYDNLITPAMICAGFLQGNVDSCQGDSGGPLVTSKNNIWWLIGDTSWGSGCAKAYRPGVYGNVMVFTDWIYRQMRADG

Compound | effect on SARS-CoV-2 infections of lung cells [1] | inhibition of TMPRSS2 [2] | antiviral activity in animal model [3]
CN(C)C(=O)COC(=O)Cc1ccc(OC(=O)c2ccc(NC(=N)N)cc2)cc1 [camostat mesylate] | reduce SARS-CoV-2 infections of lung cells | – | –
CN(C)C(=O)COC(=O)Cc1ccc(OC(=O)c2ccc(NC(=N)N)cc2)cc1 [camostat] | – | inhibit | display antiviral activity
N=C(N)c1ccc2cc(OC(=O)c3ccc(N=C(N)N)cc3)ccc2c1 [nafamostat mesylate] | reduce SARS-CoV-2 infections of lung cells | – | –
